Data reported in a melting point compilation (Tetko et al.; mined from patent text by program, amines drawn as free bases though some values may be those of a salt).

Row | Compound | melting point [°C]
1 | CC(CCc1ccccc1)N(Cc1ccccc1)CC(O)c1ccc(N)c(S(N)(=O)=O)c1 (stereo not given) | 133 to 136
2 | CCOC(=O)c1c[nH]c2cnc3cc(F)c(F)cc3c2c1=O | 300
3 | CCOC(=O)c1ccc(C=CC2(O)CN3CCC2CC3)cc1 (stereo not given) | 160 to 162
4 | CCOC(=O)C(=Cc1ccc(N(C)C)cc1[N+](=O)[O-])C(=O)OCC | 101 to 102
5 | O=C(O)Cn1c(=O)c(=O)[nH]c2cc([N+](=O)[O-])c(Cl)cc21 | > 280
6 | Cc1cc(F)ccc1-c1nc(NC(C)(CO)CO)nc2c1ccc(=O)n2-c1c(F)cccc1F | 158 to 160
7 | CC(=O)N1CCN=C1Nc1cc(C)nn1-c1ccccc1C | 160 to 161
8 | NC(=O)c1ccc(-c2cnc3[nH]c(=O)n(CC4CCCCC4)c3n2)cc1 | 293 to 295
9 | CC(C)(C)OC(=O)NCc1cccc(C(=O)O)n1 | 238 to 240
10 | CS(=O)(=O)CCCCC(Cc1ccccc1)S(=O)(=O)c1ccc(Cl)cc1 (stereo not given) | 68 to 70
11 | COC(=O)CN1Cc2cc(C(=O)c3cccnc3)ccc2N=C1SC | 114
12 | CCN1c2ncc(CCc3ccncc3)cc2C(=O)N(C)c2ccc(F)nc21 | 109 to 111
13 | Cc1cc2c(c(-c3cccc(Cl)c3)c1)OC(CN)C2 (stereo not given) | 90 to 93
14 | CN(C)C(=O)c1c(C(=O)NN=Cc2ccc3ccccc3c2)[nH]c2ccccc12 | 256 to 260
15 | Cc1cc(N(C)C)nc2ccc(C=O)cc12 | 96 to 99
16 | CCCCN(CCCC)c1ccc(C=CC2=C(OC)C(=CC=CC3=C(C#N)C(=C(C#N)C#N)OC3(C)C(F)(F)F)CC(C)(C)C2)c(OC)c1 (stereo not given) | 141 to 151
17 | O=C1NC(=O)c2c1c(-c1ccccc1Cl)cc1[nH]c3ccc(CCO)cc3c21 | 253 to 257
18 | Cc1cccc(-c2nc(N)sc2-c2ccc(F)c(-c3ccc(S(C)(=O)=O)cc3)c2)n1 | 202 to 204
19 | COc1ccc(/C=C/C(=O)c2ccc(C(=O)O)cc2)c(-c2cccs2)c1 | 209 to 211
20 | CC(C)n1nc(-c2sc(NC(=O)c3cccc(C(F)(F)F)c3)nc2-c2ccccc2)ccc1=O | 237 to 238
21 | COc1cccc(CCCc2c(CC#N)ccc(OC)c2OC)c1 | 78 to 79
22 | O=C1CCc2cc(Cl)c(S(=O)(=O)Cl)cc21 | 146 to 148
23 | CC(=O)N(C)c1nc(-c2ccccc2)c(-c2ccc(=O)n(C(C)C)n2)s1 | 165 to 167
24 | COCc1cc(-n2cc(-c3ccc(-c4ccco4)cc3)c(C(F)(F)F)n2)ccc1S(C)(=O)=O | 142 to 143
25 | C=CCn1c(=O)c(C(=O)OCC)c(N2CCN(C(=O)c3cccs3)CC2)c2cccnc21 | 89 to 96

Row | Compound | melting point [°C]
26 | CN1CCC(c2[nH]c(=O)c3ccccc3c2-c2ccc(F)cc2)CC1 | 269 to 271
27 | CCCCCc1cc2c(nc(O)n2CC2CCNCC2)c(N)n1 | 246 to 249
28 | CNc1nnc(-c2ccc3occ(-c4ccc(OC(F)(F)F)cc4)c3c2)o1 | 184 to 185
29 | Cc1nc2c(OCc3c(Cl)ccc(N(C)C(=O)Oc4ccc([N+](=O)[O-])cc4)c3Cl)cccn2c1Br | 229 to 230
30 | Cc1cc(C)c(Oc2cc(Nc3ccc(C#N)cc3)c([N+](=O)[O-])cc2[N+](=O)[O-])c(C)c1 | 132
31 | N#Cc1c[nH]c2cc(Cl)c([N+](=O)[O-])cc2c1=O | > 300
32 | O=C(NC(=O)N1CCC(Cc2ccccc2)CC1)c1ccc2[nH]ccc2c1 | 110 to 112
33 | COCN1C(=O)N(c2ccc(C#N)c(OC)c2)C(=O)C1(C)c1ccc(O)cc1 (stereo not given) | 141
34 | COc1ccc(N2CCN(c3c(C)c(C)c4c(c3C)CC(C)(C)O4)CC2)cc1 | 152 to 155
35 | CO/C=C(/C(=O)OC)c1ccccc1/C=C(\Cl)OC(=O)C1=C(c2ccccc2)S(=O)(=O)C(c2ccccc2)C1=O (stereo not given) | 68 to 72
36 | O=C1OC(=O)C2=C1CCOc1ccccc12 | 142 to 143
37 | COc1cc(OC)cc(OC(=O)NC(=O)C(c2ccccc2)c2ccccc2)c1 | 150 to 152
38 | Nc1cc(-n2ccnc2)c(F)cc1[N+](=O)[O-] | 122 to 123
39 | CCC(=O)N1Cc2cn[nH]c2-c2ccccc21 | 130 to 131
40 | N#Cc1ccc(C(=O)NC(=S)NCCc2ccccc2)cc1 | 142 to 144
41 | NS(=O)(=O)c1cc2c(cc1Cl)C(=O)N(Cc1ccccn1)C2=O | 240 to 242
42 | COc1cccc(C(=O)c2ccc(=O)n(Cc3ccc(Cl)cc3)c2)c1 | 104
43 | COCCN1CCc2ccc(Nc3ncc(Cl)c(Nc4ccccc4C(=O)NC4CC4)n3)cc2CC1 | 165 to 180
44 | COc1ccc(N2CCN(CCN3CCC(c4noc5cc(F)ccc45)CC3)C2=O)cc1 | 154 to 157
45 | Cc1ccc(Cc2cnc(NCCSCc3cc(CN(C)C)ccn3)[nH]c2=O)cn1 | 128 to 130
46 | c1cncc(N=C2SCC3Cc4ccccc4N23)c1 (racemic) | 131
47 | CC1CNc2ccc(NC3=NCCN3)c(Br)c2N1 (stereo not given) | 250 to 251
48 | C[N+]([O-])=C(Cn1cncn1)c1ccc(Cl)cc1 | 119 to 121
49 | COc1cccc(C(=O)n2c3c(c4ccccc42)CC(C(=O)O)CC3)c1 (stereo not given) | 197 to 200
50 | CCOc1c(NCc2ccc(Br)cc2CC)c(=O)c1=O | 217 to 224

Row | Compound | melting point [°C]
51 | COc1cccc(C(=C/C=C/C(=O)O)c2cccc(OC)c2)c1 | 179 to 180
52 | O=C1N(Cc2ncccc2C(F)(F)F)c2ccccc2C12COc1ccc3nonc3c12 (stereo not given) | 212 to 215
53 | Cc1nn(C2=C(F)CC(F)(C#N)C=C2)c(=O)[nH]c1=O (stereo not given) | 214
54 | Clc1ccc2c(c1)C(c1ccccc1)NC1=NCCN12 (stereo not given) | 210 to 213
55 | COc1cccc(/C(C#N)=C/c2ccc(OC)c(OC3CCCC3)c2)c1 | 83 to 85
56 | NC(=NCC(F)(F)F)Nc1ccnc(SCCCNC(=O)c2ccco2)n1 | 127 to 129
57 | N#Cc1c(N2CCc3ccccc3CC2)nc(NCCOc2ccccc2)[nH]c1=O | > 200
58 | COc1ccc(S(=O)(=O)N2c3ccccc3-c3ccccc3C2C)cc1OC (stereo not given) | 131 to 133
59 | CC(=O)OC1CCC2(C)C3=CCC4(C)C(C(C)=O)CCC4C3CCC2C1 (stereo not given) | 163 to 165
60 | N#Cc1ccc(C(F)(F)F)cn1 | 36 to 38
61 | CON(c1ccc([N+](=O)[O-])cc1C#N)S(=O)(=O)c1ccc(C)cc1 | 148 to 150
62 | CC(=O)Oc1ccc2c(c1)CCC1C3CCC(=O)C3(C)CC(O)C21O (stereo not given) | 199 to 201
63 | O=C(OC(=O)c1cccnc1)c1cccnc1 | 162 to 164
64 | CCCCNC(=O)N(C)c1cccc(-c2ccc(C=C(OC)C(=O)OC)cc2)c1 | 89
65 | COC(=O)CN1CCN(C)c2cc(Nc3ncc(Cl)c(Nc4ccccc4NS(C)(=O)=O)n3)ccc2C1 | 106 to 124
66 | CSc1cc2ccccc2cc1C=O | 53.5 to 54.5
67 | CCCCCCCCCCCCCOc1ccc(CO)cc1 | 72 to 75
68 | CC(O)(C(N)=O)c1ccc(OS(=O)(=O)C(F)(F)F)cc1 (stereo not given) | 105 to 107
69 | COCCOc1ccc(/C=C/C(=O)NS(=O)(=O)c2cccc(C#N)c2)c(Oc2ncc(C(F)(F)F)cc2Cl)c1 | 195 to 197
70 | COc1ccc2c(c1)nnc1nnc(C)n12 | 259 to 261
71 | O=C(O)c1c(Cc2cc3c(cc2Cl)OCO3)c(-c2ccccn2)nn1CC1CCC(C(=O)O)CC1 (stereo not given) | 261
72 | O=C(Cn1nnnc1-c1ccsc1)OCCCCCO | 39 to 42
73 | COc1ccc(C2NC(=O)C(C)S2)cc1OC (stereo not given) | 151 to 152
74 | CON=Cc1ccc(-c2ccccc2NC(=O)c2c(C)nn(C)c2F)cc1F | 158 to 161
75 | CCCCCCn1c2cc(CO)ccc2c2ccc(CO)cc21 | 98 to 99

Row | Compound | melting point [°C]
76 | CC(=O)Nc1ccc(S(=O)(=O)Nc2ccccc2)cc1 | 209 to 210
77 | O=C1Nc2ccccc2C12COc1ccc3c(c12)N(Cc1ccccn1)ON3 (stereo not given) | 180 to 182
78 | Cc1cc(C)cc(N2CCN(C(=O)Nc3cc(-c4cccnc4)nc4ccccc34)CC2)c1 | 211 to 213
79 | N#Cc1ncn2c1[C@@H]1CCCN1C(=O)c1c(Br)cccc1-2 | 253 to 254
80 | CNC(=O)N1N=C(c2ccc(N)cc2)c2cc3c(cc2CC1CO)OCO3 (stereo not given) | 136 to 138
81 | CC(C)=CCc1c(O)ccc(C(=O)C=Cc2ccccc2)c1O | 131 to 132
82 | CC(=O)Nc1cc(O)ccc1-c1cc(=O)c2ccccc2o1 | 253 to 255
83 | CCCCn1c(=O)n(CCN2CCC(C(=O)c3ccc(F)cc3)CC2)c(=O)c2cscc21 | 126 to 127
84 | CC(C)(C)c1cccc(S(=O)(=O)n2ccc3cc(C(F)(F)F)ccc32)c1 | 84 to 86
85 | CCOC(=O)C1CCCn2c(cc3ccccc32)C1 (stereo not given) | 69 to 70
86 | CC(=O)c1ccc2c(c1)C(C)c1cc(C(C)=O)ccc1-2 | 128 to 129
87 | N#Cc1cc(-c2cccc(F)c2)c[nH]c1=O | 261 to 266
88 | COc1ccccc1NS(=O)(=O)c1cccc([N+](=O)[O-])c1 | 130 to 132
89 | COc1cc2nc(N)nc(-c3ccc(O)c(C(=O)O)c3)c2cc1OC | > 300
90 | CC1Oc2ccc(CN3CCN(c4ccc(C(=O)O)cn4)CC3)cc2NC1=O (stereo not given) | 243 to 248
91 | Cc1cccc(C2=CCN(CCCn3c(=O)[nH]c4c(Cl)cccc4c3=O)CC2)c1 | 214 to 216
92 | COc1ccccc1-n1c(=O)[nH]c2c(C(N)=O)nc(Nc3ccccc3O)nc21 | 314 to 315
93 | COc1ccc(C(=O)Nc2ccccc2)cc1NC(=S)Nc1ccc(F)cc1 | 182 to 183
94 | Cn1ncnc1/C=C/c1ccccc1 | 67 to 70
95 | N#Cc1ccc(-c2cc(C(=O)N[C@H]3CC[C@H](C(=O)O)CC3)c(=O)n(Cc3ccccc3)n2)cc1 | 215 to 218
96 | c1cnc2c(c1)NCc1cccn1C2 | 171 to 172
97 | Nc1cc(C(=O)CCC(=O)O)ccc1Br | 169 to 171
98 | CCOC(=O)c1cn(-c2nccs2)cn1 | 142 to 143
99 | CN1Cc2c(C(N)=S)ncn2-c2ccccc2C1=O | 295 to 297
100 | CC(C)(Cc1c(C(C)(C)C)c2cc(OCc3ccc4ccccc4n3)ccc2n1Cc1ccc(Cl)cc1)C(=O)O | 201 to 202
